{"source": "patent US9844226B2", "about": "(AJINOMOTO CO., INC., priority 2009, dated 2017)", "key": {"panelists [1]": {"test_system": "panelists", "assay": "Sensory evaluation of salty taste in low salt chicken stock, use in combination with an organic acid", "assay_type": "in vivo, human", "settings": "γ-Glu-Abu 0.0040 g/dL in low salt chicken stock (salt 0.48 g/dL); control = 3, 1.25x salt = 4, 1.5x salt = 5; n=6", "description": "The sensory evaluation tests were carried out as follows. […] A test compound in an appropriate amount was dissolved in the solution, and the salty taste strength was measured. No pH adjustment is necessary, such as the lowering of the pH, because there is no difference in pH between the solution after dissolving each test compound and the control without any added compound. […] To clarify the scale, the sensory evaluation scores were set as follows: the salty taste of the control: 3 points; the salty taste of a soup with increased salt concentration by 1.25 times as compared to that of control: 4 points; and the salty taste of a soup with increased salt concentration by 1.5 times as compared to that of the control: 5 points. The sensory evaluation was carried out using a panel of n (the number of panelists)=6. For the scoring a linear scale method was used. In this method, the score was marked as a position on a straight line showing positions for scores ranging from 1 3 5. The panelists used in this test were persons who had been engaged in the development of seasonings for foods for at least one year or longer in total, and who were capable of determining that the difference in potency between γ-[…] and γ-[…] each added to an umami and salty taste solution was around 10 times, while confirming the ability of these persons at regular intervals."}, "human CaSR": {"molecular_target": "T1, human CaSR (Homo sapiens, UniProt P41180, E1011Q)", "T1 construct": "expressed in transfected cells; host or cells: 293E cells (EBNA1-expressing HEK293 cells, ATCC No. CRL-10852), transient transfection with Fugene6", "T1 sequence (P41180 20-1078 E1011Q)": "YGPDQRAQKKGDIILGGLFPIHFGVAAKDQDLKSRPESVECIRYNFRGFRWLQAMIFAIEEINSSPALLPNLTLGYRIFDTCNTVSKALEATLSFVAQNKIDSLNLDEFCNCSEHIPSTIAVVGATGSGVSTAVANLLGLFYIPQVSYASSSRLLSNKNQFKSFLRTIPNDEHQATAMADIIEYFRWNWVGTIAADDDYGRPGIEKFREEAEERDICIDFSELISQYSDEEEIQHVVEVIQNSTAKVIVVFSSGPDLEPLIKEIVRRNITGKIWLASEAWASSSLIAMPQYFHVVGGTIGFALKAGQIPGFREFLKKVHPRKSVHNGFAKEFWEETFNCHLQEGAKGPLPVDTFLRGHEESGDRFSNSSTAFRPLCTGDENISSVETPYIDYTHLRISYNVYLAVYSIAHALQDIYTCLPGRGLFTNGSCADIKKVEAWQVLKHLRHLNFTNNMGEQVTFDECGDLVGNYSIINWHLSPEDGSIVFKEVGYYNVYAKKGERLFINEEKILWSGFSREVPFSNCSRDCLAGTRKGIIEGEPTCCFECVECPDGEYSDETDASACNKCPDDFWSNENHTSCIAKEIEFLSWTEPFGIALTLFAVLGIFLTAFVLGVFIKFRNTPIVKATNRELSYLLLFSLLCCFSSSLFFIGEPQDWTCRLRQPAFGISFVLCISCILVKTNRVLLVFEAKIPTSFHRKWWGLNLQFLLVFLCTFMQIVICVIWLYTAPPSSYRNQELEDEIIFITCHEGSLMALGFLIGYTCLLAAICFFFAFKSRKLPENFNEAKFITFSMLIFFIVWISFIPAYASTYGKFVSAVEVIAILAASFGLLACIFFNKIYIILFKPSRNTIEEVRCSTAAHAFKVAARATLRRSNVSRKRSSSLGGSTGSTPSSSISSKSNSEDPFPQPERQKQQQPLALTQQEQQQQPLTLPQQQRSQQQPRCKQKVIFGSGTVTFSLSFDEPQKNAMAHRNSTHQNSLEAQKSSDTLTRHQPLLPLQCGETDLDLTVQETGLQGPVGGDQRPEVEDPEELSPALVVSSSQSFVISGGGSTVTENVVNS", "assay": "Evaluation of CaSR agonist activity (Ca2+ fluorescence, EC50)", "assay_type": "cell-based", "settings": "comparison with other dipeptides", "quoted_text": "The cells were seeded into a F25 flask at 3×10^6 cells/10 mL, and allowed to stand in a CO2 incubator (5% CO2, 37° C.) for 24 hours. Then, the cells were transfected with the human CaSR-expression plasmid hCaSR/pcDNA3.1 by using a transfection reagent Fugene6 (available from Roche Company). The cells were placed in a CO2 incubator for 6 to 7 hours, and then the cells were harvested by using DMEM/Ham's-F12 containing 10% fetal calf serum. Then, the cells were seeded into a poly-D-lysine-coated 96-well plate (BD-Biocoat) at 70,000 cells/well.\nThe plate was allowed to stand over 24 hours in a CO2 incubator, and then the culture medium was removed from the 96-well plate into which the cells were seeded. […] Then, the indicator was incorporated into the cells by allowing the plate to stand at 37° C. for one hour, and then at room temperature for 10 minutes.\nMethod for the Determination of EC50:\nThe differences between the maximum value and minimum value of the fluorescent intensity (RFU (Max-Min)) were determined by automatic calculation of FLEX Station before and after the addition of the compound. The percentage of activities was calculated, with the RFU (Max-Min) at the time when the maximum concentration of the compound added was defined to be 100%, and the RFU (Max-Min) at the time when the 0.1% BSA-containing assay buffer containing no test compound was defined to be 0%."}, "panelists [2]": {"test_system": "panelists", "assay": "Strength of kokumi-imparting activity by Point of Subjective Equality (PSE), limit-determining technique", "assay_type": "in vivo, human", "settings": "from PSE", "description": "The intensity of the kokumi-imparting activity of γ-Glu-Abu was determined by Point of Subjective Equality (PSE) according to the limit-determining technique (“Statistical Sensory Examination techniques”, written by SATO Shin, published by Japan Federation of Science and Technology). The sensory evaluation was carried out as follows: Distilled water containing sodium glutamate (0.05 g/dL), inosine monophosphate (0.05 g/dL) and sodium chloride (0.5 g/dL) was used as the solution for the sensory evaluation. […] To determine the concentration of γ-Glu-Val at which the strength of taste is the same as that of a solution obtained by causing the solution for the sensory evaluation to contain 0.005 g/dL of γ-[…] solutions were prepared with a concentration that varied on a 50% logarithmic scale by using a solution obtained by causing the solution for the sensory evaluation, to contain 0.01 g/dL of γ-Glu-Val as a standard. The concentrations of γ-Glu-Val was set to 7 values ranging from 0.0030 to 0.0337 g/dL. After the test substance was dissolved, samples more acidic than the control with no added test substance were adjusted, before further use, with NaOH to have a pH in a range of ±0.2 as compared to the pH of the control with no added test substance. The solutions were presented to eighteen panelists in ascending order of the γ-Glu-Val concentration. The evaluation was carried out until each panelist perceived that the strength was higher than that of the 0.005 g/dL γ-Glu-Abu solution. After a certain interval, the solutions were next presented to the eighteen panelists in descending order of the γ-Glu-Val concentration. The evaluation was carried out until each panelist perceived that the strength was lower than that of the 0.005 g/dL γ-Glu-Abu solution. In this sensory evaluation, the panelists were experienced in the development of food products. When the lower and upper threshold values were the same, there was no γ-Glu-Val concentration at which the difference between the perception that the strength was lower, and the perception that the strength was higher, was uncertain. […] Each confidence threshold (average) is an average of the lower thresholds and the upper thresholds. The point of subjective equality (PSE) of γ-Glu-Val to 50 ppm (0.0050 g/dL) of γ-Glu-Abu is expressed as follows: (the sum of the confidence threshold of the lower thresholds and that of the upper threshold value)/2."}}}
{"smiles": "CC[C@H](NC(=O)CC[C@H](N)C(=O)O)C(=O)O", "values": [{"measurement": "Str. of Salty Taste (score)", "setting": "panelists [1]", "result": 3.56, "unit": "score"}, {"measurement": "CaSR effect and activity (in words)", "setting": "human CaSR", "result": "strong CaSR effect and activity comparable to that of γ-Glu-Cys"}, {"measurement": "Strength of γ-Glu-Abu relative to γ-Glu-Val", "setting": "panelists [2]", "result": "approximately 2.4 times"}]}
